According to ChEMBL document CHEMBL6092192 (J Med Chem, 2024):
The source made the active and inactive calls. No cut-off for these calls is given here.

Experiments:
SW620/AD300 [1] = assay: Antitumor activity against human SW620/AD300 cells xenografted in male BALB/c nude mouse model assessed as reduction in tumor volume at 100 mg/kg/day, IG measured after 21 days; assay type: functional, organism-based; details: time 21.0 day
[2] = target: T1, ATP-dependent translocase ABCB1 (Homo sapiens, UniProt P08183); assay: Activation of ABCB1 ATPase activity (unknown origin) infected in insect cells by measuring fold change at upto 40 uM incubated for 20 mins in presence of Mg-ATP by spectrophotometric analysis; details: Insect cell, read-out: FC
T1 sequence (P08183 whole entry): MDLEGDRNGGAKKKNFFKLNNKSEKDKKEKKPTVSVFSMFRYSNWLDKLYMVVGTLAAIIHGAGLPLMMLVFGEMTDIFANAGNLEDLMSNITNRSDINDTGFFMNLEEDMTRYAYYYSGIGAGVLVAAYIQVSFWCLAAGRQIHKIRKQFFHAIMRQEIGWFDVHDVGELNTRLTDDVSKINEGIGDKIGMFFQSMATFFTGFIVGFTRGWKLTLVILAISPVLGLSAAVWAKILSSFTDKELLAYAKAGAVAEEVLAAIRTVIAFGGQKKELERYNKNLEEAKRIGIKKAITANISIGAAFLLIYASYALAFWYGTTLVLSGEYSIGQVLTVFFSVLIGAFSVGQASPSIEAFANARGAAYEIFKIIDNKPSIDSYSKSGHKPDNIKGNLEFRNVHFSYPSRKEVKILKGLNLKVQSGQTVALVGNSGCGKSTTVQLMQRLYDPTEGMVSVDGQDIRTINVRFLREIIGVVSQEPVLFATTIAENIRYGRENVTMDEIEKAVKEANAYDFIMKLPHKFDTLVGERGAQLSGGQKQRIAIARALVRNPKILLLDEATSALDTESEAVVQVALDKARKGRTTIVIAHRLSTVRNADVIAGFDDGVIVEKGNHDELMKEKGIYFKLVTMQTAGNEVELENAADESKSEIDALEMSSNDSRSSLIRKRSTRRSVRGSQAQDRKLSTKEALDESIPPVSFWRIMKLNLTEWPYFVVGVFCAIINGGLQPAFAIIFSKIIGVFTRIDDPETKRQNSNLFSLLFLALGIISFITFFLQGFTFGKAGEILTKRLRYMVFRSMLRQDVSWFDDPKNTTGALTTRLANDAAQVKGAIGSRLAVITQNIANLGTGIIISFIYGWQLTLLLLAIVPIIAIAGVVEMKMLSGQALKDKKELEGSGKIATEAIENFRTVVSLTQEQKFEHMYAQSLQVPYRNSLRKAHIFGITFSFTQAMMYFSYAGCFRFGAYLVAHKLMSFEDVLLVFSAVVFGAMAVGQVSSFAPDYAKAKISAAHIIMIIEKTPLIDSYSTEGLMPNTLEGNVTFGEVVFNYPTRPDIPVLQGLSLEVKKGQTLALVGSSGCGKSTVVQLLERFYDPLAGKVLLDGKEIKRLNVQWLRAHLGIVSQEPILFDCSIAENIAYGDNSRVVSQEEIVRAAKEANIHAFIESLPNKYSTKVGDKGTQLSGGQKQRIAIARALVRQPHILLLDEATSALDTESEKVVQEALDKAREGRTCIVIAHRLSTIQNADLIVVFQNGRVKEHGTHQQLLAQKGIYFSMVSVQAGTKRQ

KB-C2 = assay: Reversal of paclitaxel resistance in human KB-C2 cells assessed as reversal fold by measuring ratio of paclitaxel IC50 to paclitaxel IC50 in presence of test compound at 4 uM incubated for 72 hrs by MTT assay; assay type: functional
[3] = Toxicity in BALB/c nude mouse xenografted with […] CT26/TAXOL cells assessed as change in body weight at 100 mg/kg/day, IG measured upto 14 days in presence of paclitaxel; assay type: organism-based; details: in vivo, po, 336 h, time < 14 day
SW620/AD300 [4] = assay: Reversal of paclitaxel resistance in human SW620/AD300 cells assessed as reversal fold by measuring ratio of paclitaxel IC50 to paclitaxel IC50 in presence of test compound at 4 uM incubated for 72 hrs by MTT assay; assay type: functional
[5] = Toxicity in BALB/c nude mouse xenografted with […] CT26/TAXOL cells assessed as effect on kidney at 100 mg/kg/day, IG measured after 14 days by H and E staining based analysis; assay type: organism-based; details: in vivo, po, 336 h, time 14 day
[6] = Toxicity in BALB/c nude mouse xenografted with […] CT26/TAXOL cells assessed as effect on heart at 100 mg/kg/day, IG measured after 14 days by H and E staining based analysis; assay type: organism-based; details: in vivo, po, 336 h, time 14 day
[7] = Toxicity in BALB/c nude mouse xenografted with […] CT26/TAXOL cells assessed as effect on lung at 100 mg/kg/day, IG measured after 14 days by H and E staining based analysis; assay type: organism-based; details: in vivo, po, 336 h, time 14 day
CD8-positive T cell = assay: Activation of immune response in human CD8-positive T cell assessed as increase in perforin level at 4 uM by ELISA method; assay type: functional, cell-based
[8] = Toxicity in BALB/c nude mouse assessed as effect on liver liver injury at 100 mg/kg/day, IG measured after 21 days in presence of paclitaxel by H and E staining based analysis; assay type: organism-based; details: in vivo, po, 504 h, time 21 day
[9] = Toxicity in BALB/c nude mouse xenografted with […] CT26/TAXOL cells assessed as mortality at 100 mg/kg/day, IG measured upto 14 days; assay type: organism-based; details: in vivo, po, 336 h, time < 14 day
SW620/AD300 [10] = assay: Antitumor activity against human SW620/AD300 cells xenografted in male BALB/c nude mouse model assessed as increase in apoptosis at 100 mg/kg/day, IG in presence of paclitaxel by tunel staining based immunofluorescence analysis; assay type: functional, organism-based
[11] = Toxicity in BALB/c nude mouse xenografted with […] CT26/TAXOL cells assessed as mortality at 100 mg/kg/day, IG measured upto 14 days in presence of paclitaxel/anti-PD-1; assay type: organism-based; details: in vivo, po, 336 h, time < 14 day
[12] = target: T1, ATP-dependent translocase ABCB1; assay: Induction of thermal stabilization of ABCB1 in human SW620/AD300 cells at 200 uM measured after 30 mins by thermal shift assay; assay type: cell-based; details: sw620/ad300, 0.5 h
[13] = Toxicity in BALB/c nude mouse xenografted with […] CT26/TAXOL cells assessed as change in body weight at 100 mg/kg/day, IG measured upto 14 days in presence of paclitaxel/anti-PD-1; assay type: organism-based; details: in vivo, po, 336 h, time < 14 day
SW620/AD300 [14] = assay: Reversal of paclitaxel resistance in human SW620/AD300 cells assessed as reversal fold by measuring ratio of paclitaxel IC50 to paclitaxel IC50 in presence of test compound incubated for 72 hrs by MTT assay; assay type: functional
[15] = Toxicity in BALB/c nude mouse xenografted with […] CT26/TAXOL cells assessed as effect on lung at 100 mg/kg/day, IG in presence of paclitaxel measured after 14 days by H and E staining based analysis; assay type: organism-based; details: in vivo, po, 336 h, time 14 day
SW-620 [16] = assay: Cytotoxicity against human SW620 cells assessed as survival rate at 4 uM measured after 72 hrs by MTT assay relative to control; assay type: functional; details: read-out: Survival
[17] = MRT (0 to infinity) in 12 hrs fasted Sprague-Dawley rat at 1 mg/kg, iv measured upto 720 mins by HPLC-MS/MS analysis; assay type: ADME, organism-based; details: in vivo
[18] = MRT (0 to t) in 12 hrs fasted Sprague-Dawley rat at 1 mg/kg, iv measured upto 720 mins by HPLC-MS/MS analysis; assay type: ADME, organism-based; details: in vivo
[19] = Half life in 12 hrs fasted Sprague-Dawley rat at 1 mg/kg, iv measured upto 720 mins by HPLC-MS/MS analysis; assay type: ADME, organism-based; details: in vivo
[20] = AUC (0 to infinity) in 12 hrs fasted Sprague-Dawley rat at 1 mg/kg, iv measured upto 720 mins by HPLC-MS/MS analysis; assay type: ADME, organism-based; details: in vivo
SW620/AD300 [21] = assay: Cytotoxicity against multidrug resistant human SW620/AD300 cells assessed as survival rate at 4 uM measured after 72 hrs by MTT assay relative to control; assay type: functional; details: read-out: Survival
[22] = Half life in 12 hrs fasted Sprague-Dawley rat at 10 mg/kg, po measured upto 720 mins by HPLC-MS/MS analysis; assay type: ADME, organism-based; details: in vivo
[23] = Toxicity in BALB/c nude mouse assessed as change in body weight at 100 mg/kg/day, IG measured after 21 days in presence of paclitaxel; assay type: organism-based; details: in vivo, po, 504 h, time 21 day
[24] = Reversal of paclitaxel resistance in HEK293 cells harbouring ABCB1 assessed as reversal fold by measuring ratio of paclitaxel IC50 to paclitaxel IC50 in presence of test compound at 4 uM incubated for 72 hrs by MTT assay; assay type: functional, Homo sapiens
[25] = Toxicity in BALB/c nude mouse xenografted with […] CT26/TAXOL cells assessed as effect on brain at 100 mg/kg/day, IG in presence of paclitaxel/anti-PD-1 measured after 14 days by H and E staining based analysis; assay type: organism-based; details: in vivo, po, 336 h, time 14 day
SW-620 [26] = assay: Reversal of paclitaxel resistance in human SW620 cells assessed as reversal fold by measuring ratio of paclitaxel IC50 to paclitaxel IC50 in presence of test compound at 2 uM incubated for 72 hrs by MTT assay; assay type: functional
[27] = Tmax in 12 hrs fasted Sprague-Dawley rat at 10 mg/kg, po measured upto 720 mins by HPLC-MS/MS analysis; assay type: ADME, organism-based; details: in vivo
[28] = Clearance in 12 hrs fasted Sprague-Dawley rat at 1 mg/kg, iv measured upto 720 mins by HPLC-MS/MS analysis; assay type: ADME, organism-based; details: in vivo
[29] = Toxicity in BALB/c nude mouse xenografted with […] CT26/TAXOL cells assessed as effect on liver at 100 mg/kg/day, IG in presence of paclitaxel measured after 14 days by H and E staining based analysis; assay type: organism-based; details: in vivo, po, 336 h, time 14 day
[30] = target: T1, ATP-dependent translocase ABCB1; assay: Inhibition of ABCB1 in human SW620/AD300 cells assessed as increase in [3H]-PTX accumulation at 2 to 4 uM incubated for 4 hrs by liquid scintillation analysis; assay type: cell-based; details: sw620/ad300, 4 h, dose 2-4 µM

Question: For `O=c1c2c([nH]c3nc(SCc4nc5ccccc5s4)nn13)CCC2`, which Activity (SW620/AD300 [1]) is on record?
Answer: Its Activity is “Active; Compound Showed Negligible Effect”.

Question: What about the fold induction at up to 40 µM [2] of the same compound?
Answer: Its fold induction at up to 40 µM is 2.5.

Question: What about the “Ratio IC50” value (KB-C2) of the same compound?
Answer: Its value is 443.74.

Question: What about the Activity [3] of the same compound?
Answer: Its Activity is “Non-toxic”.

Question: And the “Ratio IC50” value (SW620/AD300 [4])?
Answer: Its value is 730.33.

Question: What about the Activity [5] of the same compound?
Answer: Its Activity is “Non-toxic”.

Question: What about the Activity [6] of the same compound?
Answer: Its Activity is “Non-toxic”.

Question: And the Activity [7]?
Answer: Its Activity is “Non-toxic”.

Question: And the Activity (CD8-positive T cell)?
Answer: Its Activity is “Active”.

Question: And the Activity [8]?
Answer: Its Activity is “Non-toxic”.

Question: And the Activity [9]?
Answer: The Activity was “Non-toxic”.

Question: What about the Activity (SW620/AD300 [10]) of the same compound?
Answer: Its Activity is “Active”.

Question: And the Activity [11]?
Answer: The Activity was “Non-toxic”.

Question: What about the Activity [12] of the same compound?
Answer: Its Activity is “Active”.

Question: What about the Activity [13] of the same compound?
Answer: Its Activity is “Non-toxic”.

Question: What about the “Ratio IC50” value (SW620/AD300 [14]) of the same compound?
Answer: Its value is 864.

Question: What about the Activity [15] of the same compound?
Answer: The Activity was “Non-toxic”.

Question: And the viability at 4 µM (SW-620 [16])?
Answer: The viability at 4 µM was 92.4%.

Question: What about the MRT inf [17] of the same compound?
Answer: The MRT inf was 5.49 h.

Question: What about the MRT last at 12 h [18] of the same compound?
Answer: Its MRT last at 12 h is 4.42 h.

Question: What about the half-life [19] of the same compound?
Answer: Its half-life is 5.37 h.

Question: And the AUC(0-inf) [20]?
Answer: Its AUC(0-inf) is 915 ng·h/mL.

Question: What about the viability at 4 µM (SW620/AD300 [21]) of the same compound?
Answer: The viability at 4 µM was 95.6%.

Question: What about the half-life [22] of the same compound?
Answer: Its half-life is 4.07 h.

Question: And the Activity [23]?
Answer: Its Activity is “Non-toxic”.

Question: And the “Ratio IC50” value [24]?
Answer: Its value is 28.25.

Question: And the Activity [25]?
Answer: Its Activity is “Non-toxic”.

Question: And the “Ratio IC50” value (SW-620 [26])?
Answer: The value was 1.01.

Question: And the Tmax [27]?
Answer: Its Tmax is 6 h.

Question: And the clearance [28]?
Answer: The clearance was 18.3 mL/min/kg.

Question: And the Activity [29]?
Answer: The Activity was “Non-toxic”.

Question: What about the “inhibition (INH)” value [30] of the same compound?
Answer: The value was “Active”.
